Measurements taken from the supplement of paper PMC10307832.

Experiments:
Assay in all cases: relative viability (nuclei count vs DMSO), 5 days (fraction); higher = more cells survive
[1] = system: NCI-H2228
Summary of the method: (§1)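 A single step with final 0.05% Triton X-100, 1% formaldehyde and 1 ug/ml Hoechst fixed the cells and stained nuclei 5 days after treatment. Lung cancer cell lines in 1536-well plates had been treated by pin tool the day after seeding with one drug alone or a fixed anchor-drug dose plus five library-drug doses (not always all listed) in √10 steps, and nuclei were counted on 4× images. Relative viability is the ratio of nuclei in treated wells to nuclei in vehicle wells, taken as the median of duplicate plates.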

[2] = system: RERF-LC-KJ
Summary of the method: as §1

[3] = system: A-427
Summary of the method: as §1

[4] = system: SK-MES-1
Summary of the method: as §1

[5] = system: NCI-H23
Summary of the method: as §1

[6] = system: LCLC-103H
Summary of the method: as §1

[7] = system: NCI-H1734
Summary of the method: as §1

[8] = system: LC-2-ad
Summary of the method: as §1

[9] = system: NCI-H1993
Summary of the method: as §1

[10] = system: NCI-H1355
Summary of the method: as §1

[11] = system: SW 1573
Summary of the method: as §1

[12] = system: NCI-H650
Summary of the method: as §1

[13] = system: HCC-827
Summary of the method: as §1

[14] = system: NCI-H1755
Summary of the method: as §1

[15] = system: SK-LU-1
Summary of the method: as §1

[16] = system: NCI-H2347
Summary of the method: as §1

[17] = system: NCI-H2342
Summary of the method: as §1

[18] = system: NCI-H1792
Summary of the method: as §1

[19] = system: UMC-11
Summary of the method: as §1

[20] = system: NCI-H1915
Summary of the method: as §1

[21] = system: NCI-H2170
Summary of the method: as §1

[22] = system: NCI-H1975
Summary of the method: as §1

For Cc1cn(-c2cc(NC(=O)c3ccc(C)c(Nc4nccc(-c5cccnc5)n4)c3)cc(C(F)(F)F)c2)cn1 [Nilotinib] + CCNC(=O)c1noc(-c2cc(C(C)C)c(O)cc2O)c1-c1ccc(CN2CCOCC2)cc1 [Luminespib] (partner 0.01 µM), the relative viability ([1]; first compound 0.003162 µM) was 0.161, the relative viability ([1]; first compound 0.01 µM) was 0.183 and the relative viability ([1]; first compound 0.03162 µM) was 0.151. The relative viability ([1]; first compound 0.1 µM) was 0.0953, the relative viability ([2]; first compound 0.001 µM) was 1.3 and the relative viability ([2]; first compound 0.003162 µM) was 1.47. It also gave a relative viability ([2]; first compound 0.01 µM) of 1.34, a relative viability ([2]; first compound 0.03162 µM) of 0.946 and a relative viability ([2]; first compound 0.1 µM) of 1.22. It also gave a relative viability ([3]; first compound 0.001 µM) of 0.98, a relative viability ([3]; first compound 0.003162 µM) of 0.948 and a relative viability ([3]; first compound 0.03162 µM) of 0.724. It also gave a relative viability ([3]; first compound 0.1 µM) of 0.336, a relative viability ([4]; first compound 0.001 µM) of 0.784 and a relative viability ([4]; first compound 0.003162 µM) of 0.985. The relative viability ([4]; first compound 0.01 µM) was 0.927, the relative viability ([4]; first compound 0.03162 µM) was 0.672 and the relative viability ([4]; first compound 0.1 µM) was 0.626. It also gave a relative viability ([5]; first compound 0.001 µM) of 0.204, a relative viability ([5]; first compound 0.01 µM) of 0.205 and a relative viability ([5]; first compound 0.03162 µM) of 0.19. For the same compound, the relative viability ([5]; first compound 0.1 µM) was 0.195, the relative viability ([6]; first compound 0.001 µM) was 0.971 and the relative viability ([6]; first compound 0.003162 µM) was 1.3. It also gave a relative viability ([6]; first compound 0.01 µM) of 1.33, a relative viability ([6]; first compound 0.03162 µM) of 0.927 and a relative viability ([6]; first compound 0.1 µM) of 0.919. The relative viability ([7]; first compound 0.001 µM) was 0.174, the relative viability ([7]; first compound 0.003162 µM) was 0.168 and the relative viability ([7]; first compound 0.01 µM) was 0.208. For the same compound, the relative viability ([7]; first compound 0.03162 µM) was 0.183, the relative viability ([7]; first compound 0.1 µM) was 0.169 and the relative viability ([8]; first compound 0.001 µM) was 0.85. For the same compound, the relative viability ([8]; first compound 0.003162 µM) was 1.15, the relative viability ([8]; first compound 0.01 µM) was 1.21 and the relative viability ([8]; first compound 0.03162 µM) was 0.947. The relative viability ([8]; first compound 0.1 µM) was 0.8, the relative viability ([9]; first compound 0.001 µM) was 0.928 and the relative viability ([9]; first compound 0.003162 µM) was 0.456. The relative viability ([9]; first compound 0.01 µM) was 0.912, the relative viability ([9]; first compound 0.03162 µM) was 0.773 and the relative viability ([9]; first compound 0.1 µM) was 0.765. The relative viability ([10]; first compound 0.001 µM) was 0.542, the relative viability ([10]; first compound 0.003162 µM) was 0.7 and the relative viability ([10]; first compound 0.01 µM) was 0.644. For the same compound, the relative viability ([10]; first compound 0.03162 µM) was 0.549, the relative viability ([10]; first compound 0.1 µM) was 0.654 and the relative viability ([11]; first compound 0.001 µM) was 0.397. The relative viability ([11]; first compound 0.003162 µM) was 0.711, the relative viability ([11]; first compound 0.01 µM) was 0.277 and the relative viability ([11]; first compound 0.03162 µM) was 0.163. The relative viability ([11]; first compound 0.1 µM) was 0.144, the relative viability ([12]; first compound 0.001 µM) was 0.687 and the relative viability ([12]; first compound 0.003162 µM) was 0.564. For the same compound, the relative viability ([12]; first compound 0.01 µM) was 0.792, the relative viability ([12]; first compound 0.03162 µM) was 0.742 and the relative viability ([12]; first compound 0.1 µM) was 0.79. The relative viability ([13]; first compound 0.003162 µM) was 0.634, the relative viability ([13]; first compound 0.01 µM) was 0.721 and the relative viability ([13]; first compound 0.03162 µM) was 0.563. The relative viability ([13]; first compound 0.1 µM) was 0.542, the relative viability ([14]; first compound 0.001 µM) was 0.651 and the relative viability ([14]; first compound 0.003162 µM) was 0.418. For the same compound, the relative viability ([14]; first compound 0.01 µM) was 0.396, the relative viability ([14]; first compound 0.03162 µM) was 0.632 and the relative viability ([14]; first compound 0.1 µM) was 0.376. The relative viability ([15]; first compound 0.001 µM) was 0.19, the relative viability ([15]; first compound 0.003162 µM) was 0.212 and the relative viability ([15]; first compound 0.03162 µM) was 0.215. For the same compound, the relative viability ([15]; first compound 0.1 µM) was 0.217, the relative viability ([16]; first compound 0.001 µM) was 0.344 and the relative viability ([16]; first compound 0.003162 µM) was 0.263. The relative viability ([16]; first compound 0.01 µM) was 0.712, the relative viability ([16]; first compound 0.03162 µM) was 0.589 and the relative viability ([16]; first compound 0.1 µM) was 0.598. It also gave a relative viability ([17]; first compound 0.001 µM) of 0.595, a relative viability ([17]; first compound 0.003162 µM) of 0.675 and a relative viability ([17]; first compound 0.01 µM) of 0.698. The relative viability ([17]; first compound 0.03162 µM) was 0.586, the relative viability ([17]; first compound 0.1 µM) was 0.673 and the relative viability ([18]; first compound 0.003162 µM) was 0.417. The relative viability ([18]; first compound 0.01 µM) was 0.545, the relative viability ([18]; first compound 0.1 µM) was 0.266 and the relative viability ([19]; first compound 0.001 µM) was 0.978. It also gave a relative viability ([19]; first compound 0.003162 µM) of 1.22, a relative viability ([19]; first compound 0.01 µM) of 1.26 and a relative viability ([19]; first compound 0.1 µM) of 1.39. It also gave a relative viability ([20]; first compound 0.001 µM) of 0.713, a relative viability ([20]; first compound 0.003162 µM) of 0.896 and a relative viability ([20]; first compound 0.01 µM) of 1.41. It also gave a relative viability ([20]; first compound 0.03162 µM) of 0.553, a relative viability ([20]; first compound 0.1 µM) of 0.759 and a relative viability ([21]; first compound 0.001 µM) of 0.591. The relative viability ([21]; first compound 0.003162 µM) was 1.11, the relative viability ([21]; first compound 0.01 µM) was 1.5 and the relative viability ([21]; first compound 0.03162 µM) was 0.328. It also gave a relative viability ([21]; first compound 0.1 µM) of 0.877, a relative viability ([22]; first compound 0.001 µM) of 0.212 and a relative viability ([22]; first compound 0.003162 µM) of 0.143. It also gave a relative viability ([22]; first compound 0.01 µM) of 0.171, a relative viability ([22]; first compound 0.03162 µM) of 0.205 and a relative viability ([22]; first compound 0.1 µM) of 0.138.
